Results taken from US20220331301A1, “CYSTIC FIBROSIS TRANSMEMBRANE CONDUCTANCE REGULATOR MODULATORS FOR TREATING AUTOSOMAL RESESSIVE POLYCYSTIC KIDNEY DISEASE” (The Johns Hopkins University, priority 2021, published 2022).
“Also recorded” adds a separate entry of the source.

What was measured:
[1] = test system: Pkhd1^del4/del4 cholangiocytes; experiment: Cyst growth of cholangiocytes on matrigel (3D culture); assay type: cell-based, mice; conditions: for cyst growth / cyst area: 10 μM continuous, cysts induced with Forskolin (10 μM)
Description: (§1) Note that the cysts treated with forskolin (for) grew larger. […] Note that the cysts treated with forskolin (for) grew larger. […] FIG. 3C for 1 wk. […] Cysts were induced with Forskolin (10 μM) for 24 hours prior to study. Columns represent means±standard error (SEM). **P<0.01 ****P<0.0001 (for all graphs). Statistical analysis was performed using an unpaired two-tailed Student's t-test;
as §1, with “4C” for “3C”
But cysts do develop from the Pkhd1del4/del4 cholangiocytes. Cyst growth is accelerated by forskolin (for). […] Yanda et al., 2018. The dosage of VX-809 injected was lower than the human pediatric dose, which is 500 mg of Lumacaftor per day; the adult dose is 800 mg/day.
(§2) (Methods and cells provided by the Yale O'Brian Center) To create the cholangiocyte cultures PKhd1del/4/del4, Garcia-Gonzalez et al., 2007, animals were crossed with mice transgenic for the Sv40 large T Antigen (strain name SV40 T-antigen JAX strain #002233). Segments of intrahepatic bile ducts were microdissected from livers perfused via the portal vein with molten agarose containing toluidine blue to mark the veins. The liver parenchyma was stripped until the biliary tree was identified and the bile duct units were seeded onto rat type I collagen coated plates. Cells were cultured under non-permissive conditions in the following medium: DMEM/F12 with 5% fetal bovine serum, 10 μL/mL insulin-transferrin selenium, 3.4 μg/mL triiodothyronine, 50,000 U penicillin/streptomycin under humidified conditions at 37° C. in 5% CO2. After one week, the cells were cultured under permissive conditions in the presence of 10 U of interferon-γ at 33° C. in 5% CO2. When confluent, cells were passaged by digesting the collagen slab below the cells (60 min; 37° C.; DMEM/F12 with 2 mg/mL dispase and 1 mg/mL collagenase type 11), then washed twice in PBS and plated onto collagen coated support systems. Clonal cell lines were generated by single cell isolation. Cells were differentiated for 10 days at 37° C. without interferon-γ for experimental use.

CFTR = CFTR colocalization in bile duct epithelia of Pkhd1^del3-4/del3-4 mice; assay type: in vivo; conditions: 30 mg/kg every other day for 30 days
Description: FIG. 13A and FIG. 13B show CFTR and CK19 colocalization in WT and Pkhd1^del3-4/del3-4 mice bile duct epithelia. […] Merged red and green channels are shown, wherein yellow indicates colocalization; the white square indicates the area of enlargement shown. FIG. 13B summarizes the Pearson's Correlation coefficient R. Bars represent the means±SEM. Samples were incubated with 5 μg/ml primary antibody CFTR (596) and CK19 (Invitrogen #PA5-29548) in blocking buffer for 16 hours at 4° C. Goat anti-rabbit Alexa Fluor 594 and anti-mouse Alexa Flour 488 conjugated secondary antibodies were used at a 1/250 dilution for 1 hour to label the proteins. Scale bar is 10 μm. **P<0.01, ****P<0.0001.
FIG. 14A and FIG. 14B show CFTR and E-Cadherin colocalization in WT and Pkhd1^del3-4/del3-4 mice bile duct epithelia. […] Merged red and green channels are shown, wherein yellow indicates colocalization; the white square indicates the area of enlargement shown. E-Cadherin is a marker of the lateral junctional membrane of epithelial cells (see, e.g., Bruser (2017) Adherens Junctions on the Move-Membrane Trafficking of E-Cadherin. Cold Spring Harb. Perspect. Biol. 9, a029140, incorporated herein by reference). FIG. 14B summarizes the Pearson's Correlation coefficient R in mutant cells. Samples were incubated with 5 μg/ml primary antibody CFTR (596) and eCadherin (R&D #AF748) in blocking buffer for 16 hours at 4° C. Goat anti-mouse Alexa Fluor 594 and anti-goat Alexa Flour 488 conjugated secondary antibodies were used at a 1/250 dilution for 1 hour to label the proteins. Scale bar is 10 μm. As shown by the data, Pkhd1^del3-4/del3-4 cholangiocytes have much greater colocalization of CFTR with the apical/lateral marker compared to WT cells. VX-809 treatment decreases E-cadherin colocalization of CFTR in mutant mice cells. All images were captured with a 63× oil objective. Significance was analyzed using unpaired t test. […]
FIG. 15A and FIG. 15B show CFTR and Na/K ATPase colocalization in WT and Pkhd1^del3-4/del3-4 mice bile duct epithelia. […] Significance was analyzed using unpaired t test. […]

fibrocystin (FPC) = experiment: FPC expression in WT and Pkhd1del4/del4 cholangiocytes; assay type: cell-based, mice; conditions: Pkhd1^del4/del4 cholangiocytes
Description: FIG. 1A and FIG. 1B show the expression of fibrocystin (FPC) in normal and reduced levels in Pkhd1^del4/del4 cholangiocytes. The residual level of FPC is expected in Pkhd1^del4/del4 cholangiocytes. Garcia-Gonzalez et al., 2007. VX-809 increases FPC. Columns represent the means±SEM of the FPC expression. The data were analyzed by non-parametric t-test. The experiment was repeated 3-4 times; P<0.05;
as §2, with “When confluent, cells were passaged by digesting the collagen slab below the cells (60 min; 37° C.; DMEM/F12 with 2 mg/mL dispase and 1 mg/mL collagenase type 11), then washed twice in PBS and plated onto collagen coated support systems. Clonal cell lines were generated by single cell isolation. Cells were differentiated for 10 days at 37° C. without interferon-γ for experimental use.” left out

## lumacaftor [VX-809]
[1]; Pkhd1del4/del4 cholangiocytes, time not stated
  cyst growth in 3D culture: reduces growth; also recorded: can reduce cyst growth even in the presence of forskolin
[1]; monitored for 1 week
  cyst growth / cyst area: reduced cyst growth in the presence of forskolin
[1]; monitored for 72 hrs
  cyst growth / cyst area: reduced cyst growth in the presence of forskolin
CFTR
  CFTR-CK19 colocalization: significantly lowered the colocalization
  CFTR-Na/K ATPase colocalization (basolateral membrane): increased the colocalization with the basolateral membrane; also recorded: significantly increased CFTR-Na/K ATPase colocalization
  CFTR-eCadherin colocalization: significantly lowered the colocalization
Fibrocystin (FPC)
  FPC expression: increases FPC and CFTR protein levels
